Among the test systems are HOP-92 NSCLC; OVCAR-5 ovarian; MALME-3M melanoma; COLO 205 colon; SR leukemia; UACC-62 melanoma; SN12C renal; MDA-MB-435; DU-145 prostate; BT-549 breast.
Test in all cases: growth of human tumour cells (NCI), 48 h

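A five-concentration, 48-hour dose response in 96-well plates underlies each endpoint, interpolated linearly between surrounding concentrations. TGI denotes the concentration required for complete inhibition of growth.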

For `COc1cccc2c1OC1Sc3ccccc3-c3nn(-c4ccccc4)c-2c31` (stereo not given), the TGI in the experiment on HOP-92 NSCLC, with OVCAR-5 ovarian, in the experiment with MALME-3M melanoma and in the experiment on COLO 205 colon was > 100 µM in each case.

`Cc1c(C(=O)O)n2c(=S)[nH]nc2c2ccccc12`: the TGI in the experiment on HOP-92 NSCLC, with SR leukemia, in the experiment on OVCAR-5 ovarian, in the experiment on UACC-62 melanoma, in the experiment on SN12C renal and in the experiment with MDA-MB-435 was > 100 µM throughout. Further, the TGI in the experiment with DU-145 prostate and in the experiment on COLO 205 colon was > 100 µM each time.

`O=P(O)(O)c1ccc(-c2ccc(I)cc2)cc1`: the TGI with SR leukemia, in the experiment on OVCAR-5 ovarian, in the experiment with MALME-3M melanoma, in the experiment on UACC-62 melanoma, in the experiment with SN12C renal and in the experiment with BT-549 breast was > 100 µM in each case. The TGI in the experiment with DU-145 prostate and in the experiment on COLO 205 colon was > 100 µM throughout.

`CCC12CCCN(Cc3ccccc3)C1c1c(n(C)c3ccccc13)C(CO)C2` (stereo not given): the TGI in the experiment on HOP-92 NSCLC is 110 µM; in the experiment with SR leukemia it was 105 µM; in the experiment on OVCAR-5 ovarian, 75.6 µM; with MALME-3M melanoma, 84.6 µM; in the experiment with UACC-62 melanoma, 115 µM; with SN12C renal, 81.2 µM. In addition, the TGI with COLO 205 colon came out at 75.2 µM.

With `Cc1cc(=O)oc2cc(OCCCOc3ccc4c(C)cc(=O)oc4c3)ccc12`, the TGI in the experiment on SR leukemia, in the experiment with MALME-3M melanoma, in the experiment on UACC-62 melanoma, in the experiment on SN12C renal and with COLO 205 colon was > 100 µM each time.

On to `Nc1nc(Cl)cc(OCC2(CO)CCCC2)n1`, for which the TGI in the experiment on HOP-92 NSCLC, with OVCAR-5 ovarian, in the experiment with MALME-3M melanoma, in the experiment with SN12C renal, with MDA-MB-435 and in the experiment with DU-145 prostate was > 100 µM in each case.

Take `CC(C)(C)N/N=C(\C(=O)Nc1cccc(Cl)c1)C1C(=O)Nc2ccccc2S1=O` (stereo not given): the TGI is > 100 µM in the experiment on HOP-92 NSCLC; > 100 µM with SR leukemia; 47.4 µM in the experiment on MALME-3M melanoma; > 100 µM with UACC-62 melanoma; > 100 µM in the experiment on SN12C renal; > 100 µM in the experiment with COLO 205 colon.

Consider `CCOC(=O)c1c(NS(=O)(=O)c2ccc(C)cc2)sc2c1CCCC2`, for which the TGI in the experiment on OVCAR-5 ovarian was > 100 µM; in the experiment on UACC-62 melanoma, 56.5 µM; with SN12C renal, > 100 µM; with BT-549 breast it was > 100 µM; with DU-145 prostate it was > 100 µM; in the experiment on COLO 205 colon, 37.9 µM.

Take `Cn1cnc(N2CCCC2)c(C#N)c1=S`: the TGI in the experiment with HOP-92 NSCLC, in the experiment on SR leukemia, in the experiment with OVCAR-5 ovarian, with MALME-3M melanoma, with UACC-62 melanoma and in the experiment with SN12C renal was > 100 µM each time. The TGI in the experiment on MDA-MB-435, in the experiment on DU-145 prostate and with COLO 205 colon was > 100 µM in each case.

Regarding `COc1cc(C2c3cc4c(cc3OC(NNc3ccccc3)C2C)OCO4)cc(OC)c1OC` (stereo not given), the TGI is 52.1 µM with HOP-92 NSCLC; > 81 µM in the experiment with OVCAR-5 ovarian; > 38.5 µM in the experiment with MALME-3M melanoma; > 43.5 µM in the experiment on UACC-62 melanoma; > 62 µM in the experiment with SN12C renal; 33.4 µM in the experiment on BT-549 breast. The TGI is 1.31 µM in the experiment with MDA-MB-435, > 31.2 µM in the experiment on DU-145 prostate and 10.3 µM with COLO 205 colon.

In the case of `COc1cccc2c1C(=O)c1c(O)c3c(c(O)c1C2=O)C[C@@](O)(C(C)=O)CC3S(=O)(=O)O` (stereo not given in full), the TGI in the experiment on HOP-92 NSCLC, with SR leukemia, in the experiment on OVCAR-5 ovarian, in the experiment with MALME-3M melanoma, with UACC-62 melanoma and in the experiment on SN12C renal was > 100 µM each time. For the same compound, in the experiment with COLO 205 colon, the TGI was > 100 µM.

Regarding `CCc1cc(C)cc2[n+]1CC=C2`, the TGI in the experiment with HOP-92 NSCLC was determined as 45 µM; with OVCAR-5 ovarian, 56.6 µM; in the experiment on MALME-3M melanoma it was 67.5 µM; in the experiment with SN12C renal, 78.6 µM; in the experiment with COLO 205 colon it was 81.5 µM.

With `CSc1cc(Cl)c(C)cc1S(=O)(=O)NC(=O)NNc1ccc(F)cc1`, the TGI in the experiment on SR leukemia, in the experiment on OVCAR-5 ovarian, with MALME-3M melanoma, in the experiment on SN12C renal, with MDA-MB-435 and in the experiment on DU-145 prostate was > 100 µM each time. For the same compound, the TGI with COLO 205 colon was > 100 µM.

In the case of `CC(=O)O[C@H]1C(=O)[C@@]2(C)[C@H]([C@H](OC(=O)c3ccccc3)[C@]3(O)C[C@H](OC(=O)[C@H](O)[C@@H](NC(=O)c4ccccc4)c4ccc5ccccc5c4)C(C)=C1C3(C)C)[C@]1(OC(C)=O)CO[C@@H]1C[C@@H]2O`, the TGI in the experiment with HOP-92 NSCLC was > 14 µM; with SR leukemia, 1.85 µM; in the experiment with OVCAR-5 ovarian it was 2 µM; in the experiment with MALME-3M melanoma it was 14.7 µM; in the experiment with UACC-62 melanoma it was 12.7 µM; with SN12C renal, 17.2 µM. Further, the TGI was found to be 0.0238 µM with MDA-MB-435 and 0.319 µM in the experiment on COLO 205 colon.

For `Nc1nc(NCCOCP(=O)(O)O)c([N+](=O)[O-])c(=O)[nH]1`, the TGI in the experiment with HOP-92 NSCLC, in the experiment on SR leukemia, in the experiment on MALME-3M melanoma, with UACC-62 melanoma, in the experiment on SN12C renal and in the experiment with COLO 205 colon was > 100 µM each time.

As for `COC1=C[C@]2(CCC(=O)O2)[C@@H]2Cc3ccccc3[C@H](O)[C@@H]2C1=O`, the TGI is > 100 µM in the experiment on HOP-92 NSCLC; 41.4 µM in the experiment with SR leukemia; > 100 µM in the experiment on OVCAR-5 ovarian; 50.2 µM in the experiment on MALME-3M melanoma; 65.1 µM in the experiment with UACC-62 melanoma; > 100 µM in the experiment with SN12C renal. In addition, the TGI in the experiment with BT-549 breast was > 100 µM; with MDA-MB-435 it was 31 µM; in the experiment on COLO 205 colon, > 100 µM.

As for `O=c1cc(-c2ccccc2)[nH]c2ncccc12`, the TGI was 7.54 µM in the experiment with HOP-92 NSCLC; > 100 µM in the experiment on OVCAR-5 ovarian; > 100 µM in the experiment with MALME-3M melanoma; > 100 µM in the experiment with BT-549 breast; > 100 µM in the experiment with DU-145 prostate.

Source of the values: PubChem BioAssay (NCI).
